Data reported in ChEMBL document CHEMBL1201862, “PubChem BioAssay data set” (2004).
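Compound exposure: 48 hours, 5 concentrations, 96-well plates. Here, GI50 denotes the concentration required for 50% inhibition of growth.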 Active and inactive are the calls of the source. Rule as the data show it: active = GI50 up to about 1.1 µM and inactive = higher.

What was measured:
Assay in all cases: growth of human tumour cells (NCI), 48 h
[1] = test system: SK-MEL-2
[2] = test system: OVCAR-8
[3] = test system: MOLT-4
[4] = test system: SW-620
[5] = test system: CAKI-1
[6] = test system: RXF 393
[7] = test system: HCT-15
[8] = test system: OVCAR-4
[9] = test system: K562
[10] = test system: HCC 2998
[11] = test system: ACHN
[12] = test system: RPMI-8226
[13] = test system: IGROV-1
[14] = test system: CCRF-CEM
[15] = test system: OVCAR-3
[16] = test system: SR
[17] = test system: OVCAR-5
[18] = test system: SF-295
[19] = test system: NCI-H23

| SMILES | GI50 [1] | GI50 [2] | GI50 [3] | GI50 [4] | GI50 [5] | GI50 [6] | GI50 [7] [µM] | GI50 [8] | GI50 [9] | GI50 [10] | GI50 [11] | GI50 [12] | GI50 [13] | GI50 [14] | GI50 [15] | GI50 [16] | GI50 [17] | GI50 [18] | GI50 [19] |
| --- | --- | --- | --- | --- | --- | --- | --- | --- | --- | --- | --- | --- | --- | --- | --- | --- | --- | --- | --- |
| COC(=O)C1CC(OC(C)=O)C=C2C(=O)CCC21 (centres undefined) | 29 µM (inactive) | 18.5 µM (inactive) | 14.6 µM (inactive) | 20.3 µM (inactive) | 27 µM (inactive) | 14.8 µM (inactive) | 15.3 | 19 µM (inactive) | 15.9 µM (inactive) | 34.2 µM (inactive) | 20.2 µM (inactive) | 21.4 µM (inactive) | 27.2 µM (inactive) | 16.8 µM (inactive) | 13.9 µM (inactive) | 14 µM (inactive) | – | – | – |
| COc1cc(/C=N/c2nncs2)ccc1O | > 100 µM (inactive) | > 100 µM (inactive) | > 100 µM (inactive) | > 100 µM (inactive) | > 100 µM (inactive) | > 100 µM (inactive) | > 100 | > 100 µM (inactive) | > 100 µM (inactive) | > 100 µM (inactive) | > 100 µM (inactive) | > 100 µM (inactive) | > 100 µM (inactive) | > 100 µM (inactive) | – | > 100 µM (inactive) | > 100 µM (inactive) | > 100 µM (inactive) | > 100 µM (inactive) |
| COc1cc(/C=C(\C#N)C(=O)c2ccccc2)cc(OC)c1OC | > 100 µM (inactive) | > 100 µM (inactive) | > 100 µM (inactive) | > 100 µM (inactive) | > 100 µM (inactive) | 29.6 µM (inactive) | > 100 | > 100 µM (inactive) | > 100 µM (inactive) | > 100 µM (inactive) | > 100 µM (inactive) | > 100 µM (inactive) | – | > 100 µM (inactive) | > 100 µM (inactive) | > 100 µM (inactive) | > 100 µM (inactive) | > 100 µM (inactive) | > 100 µM (inactive) |
| CCCCC(C(=O)CCC(=O)Nc1ccc(Cl)cc1)C(=O)C(C)C (centres undefined) | > 100 µM (inactive) | > 100 µM (inactive) | > 100 µM (inactive) | > 100 µM (inactive) | > 100 µM (inactive) | > 100 µM (inactive) | > 100 | > 100 µM (inactive) | 25.1 µM (inactive) | > 100 µM (inactive) | > 100 µM (inactive) | > 100 µM (inactive) | > 100 µM (inactive) | > 100 µM (inactive) | > 100 µM (inactive) | > 100 µM (inactive) | > 100 µM (inactive) | > 100 µM (inactive) | > 100 µM (inactive) |
| Cc1cccc(C)c1NC(=O)C(=O)C1C(=O)NC(=O)NC1=O | – | > 100 µM (inactive) | > 100 µM (inactive) | > 100 µM (inactive) | > 100 µM (inactive) | > 100 µM (inactive) | > 100 | > 100 µM (inactive) | > 100 µM (inactive) | > 100 µM (inactive) | > 100 µM (inactive) | > 100 µM (inactive) | > 100 µM (inactive) | > 100 µM (inactive) | > 100 µM (inactive) | > 100 µM (inactive) | > 100 µM (inactive) | > 100 µM (inactive) | > 100 µM (inactive) |
| COc1ccc2c3ccc4c(c3n(C)c2c1)C(=O)c1ccccc1C4=O | – | 36.9 µM (inactive) | > 100 µM (inactive) | 80.2 µM (inactive) | – | > 100 µM (inactive) | > 100 | 17.8 µM (inactive) | > 100 µM (inactive) | > 100 µM (inactive) | 51.3 µM (inactive) | > 100 µM (inactive) | > 100 µM (inactive) | > 100 µM (inactive) | – | > 100 µM (inactive) | – | 78.2 µM (inactive) | > 100 µM (inactive) |
| COC(=O)C(=O)C1(CCC(C)=O)c2ccccc2-c2ccccc21 | 83.4 µM (inactive) | 99.8 µM (inactive) | 33.4 µM (inactive) | > 100 µM (inactive) | 35.2 µM (inactive) | 57.4 µM (inactive) | 56.4 | > 100 µM (inactive) | 44.5 µM (inactive) | 72.3 µM (inactive) | > 100 µM (inactive) | 36.4 µM (inactive) | > 100 µM (inactive) | 63.2 µM (inactive) | 44.6 µM (inactive) | 41 µM (inactive) | > 100 µM (inactive) | > 100 µM (inactive) | 63.2 µM (inactive) |
| CN1OC2OC(=O)OC2[C@H]1[C@H]1O[C@H](c2ccccc2)OC1(C)c1cc(OC(=O)c2ccccc2)ccc1OC(=O)c1ccccc1 (some centres undefined) | > 50 µM (inactive) | > 50 µM (inactive) | > 50 µM (inactive) | > 50 µM (inactive) | > 50 µM (inactive) | > 50 µM (inactive) | > 50 | > 50 µM (inactive) | > 50 µM (inactive) | – | > 50 µM (inactive) | > 50 µM (inactive) | > 50 µM (inactive) | > 50 µM (inactive) | > 50 µM (inactive) | > 50 µM (inactive) | > 50 µM (inactive) | – | > 50 µM (inactive) |
| OCC(O)C(O)C(O)c1nn(-c2ccc(Cl)cc2)c2nc3cc(Cl)c(Cl)cc3nc12 (centres undefined) | 24.8 µM (inactive) | 22.5 µM (inactive) | 52.5 µM (inactive) | > 100 µM (inactive) | > 100 µM (inactive) | 21.8 µM (inactive) | – | > 100 µM (inactive) | 50.8 µM (inactive) | 60.1 µM (inactive) | 73.1 µM (inactive) | > 100 µM (inactive) | 31.8 µM (inactive) | 52.1 µM (inactive) | > 100 µM (inactive) | > 100 µM (inactive) | > 100 µM (inactive) | 67.6 µM (inactive) | 19.2 µM (inactive) |
| Cc1cc(O)c2c(c1)C(O)(c1ccc3c(c1O)C(=O)c1c(O)cc(C)cc1C3(O)C1OC(CO)C(O)C(O)C1O)c1cccc(O)c1C2=O (centres undefined) | – | 13.4 µM (inactive) | 10.7 µM (inactive) | 17.3 µM (inactive) | 17.7 µM (inactive) | 12.1 µM (inactive) | 12.8 | 12.9 µM (inactive) | 5.15 µM (inactive) | 16 µM (inactive) | 13 µM (inactive) | 16 µM (inactive) | 14.7 µM (inactive) | 8.34 µM (inactive) | 10.5 µM (inactive) | 8.15 µM (inactive) | 18.1 µM (inactive) | 11.6 µM (inactive) | 15.2 µM (inactive) |
| COC(=O)c1sc2nc(Nc3ccccc3)/c(=N\c3ccccc3)sc2c1C | 48.6 µM (inactive) | 64.1 µM (inactive) | > 100 µM (inactive) | > 100 µM (inactive) | 58.6 µM (inactive) | 24.3 µM (inactive) | > 100 | 64.7 µM (inactive) | > 100 µM (inactive) | > 100 µM (inactive) | 32.7 µM (inactive) | > 100 µM (inactive) | 45.4 µM (inactive) | > 100 µM (inactive) | – | 47.6 µM (inactive) | > 100 µM (inactive) | 51.4 µM (inactive) | 94.4 µM (inactive) |
